Laboratory results taken from US5340833A, “Urokinase inhibitors” (Eisai Co., Ltd., priority 1992, dated 1994).
Where a name gives a salt, the structure may show the parent alone.

Tests used:
Type in all cases: biochemical
[1] = target: T1, human two-chain tPA (Homo sapiens, UniProt P00750); experiment: tPA Indirect (Plasminogen-Linked) Assay (tPA Direct Assay result where lower); details: for tPA/UPA ratio: ratio with respect to urokinase indirect plasminogen-linked IC50, larger = greater specificity for urokinase
T1 construct: human two-chain tPA was substituted for urokinase; purchased American Diagnostica
T1 sequence (P00750 311-562 limits assumed): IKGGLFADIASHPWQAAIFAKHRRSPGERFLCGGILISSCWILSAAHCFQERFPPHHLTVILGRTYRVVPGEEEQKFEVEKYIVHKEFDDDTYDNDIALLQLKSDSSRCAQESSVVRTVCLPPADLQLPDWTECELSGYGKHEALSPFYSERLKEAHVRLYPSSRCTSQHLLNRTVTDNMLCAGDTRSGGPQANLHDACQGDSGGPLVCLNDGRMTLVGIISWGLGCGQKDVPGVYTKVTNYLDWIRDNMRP
T1 sequence (P00750 36-310 limits assumed): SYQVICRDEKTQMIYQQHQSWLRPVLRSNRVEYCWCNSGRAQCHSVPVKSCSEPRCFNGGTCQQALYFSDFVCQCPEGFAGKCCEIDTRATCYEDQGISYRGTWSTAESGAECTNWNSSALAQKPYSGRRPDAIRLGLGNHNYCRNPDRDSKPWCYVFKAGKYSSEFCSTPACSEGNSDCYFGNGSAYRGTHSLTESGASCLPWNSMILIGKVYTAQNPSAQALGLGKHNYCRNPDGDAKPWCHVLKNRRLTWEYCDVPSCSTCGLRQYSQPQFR
Text: (iv) Both direct and plasminogen-linked pNA assays for tPA, the other mammalian plasminogen activator and the key initiator of blood clot dissolution or fibrinolysis. Since urokinase and tPA share an absolute specificity for the same peptide bond in plasminogen, urokinase inhibitors designed to block cellular invasiveness must be highly specific for urokinase over tPA in order to avoid serious thrombotic side effects secondary to undesired blockage of normal fibrinolysis. […] Spectrozyme tPA®, American Diagnostica) was substituted for urokinase substrate.

[2] = target: T2, urokinase (Homo sapiens, UniProt P00749); experiment: Urokinase Indirect (Plasminogen-Linked) Assay; details: Table 3 column 4, simple number, unit inferred; read-out: uPA Indirect (plasminogen-linked) IC50
T2 construct: human high molecular weight urokinase; purchased American Diagnostica, Greenwich, Conn
Method: (ii) An indirect plasminogen-linked assay in which urokinase proteolytically activates plasminogen, forming plasmin which then cleaves a synthetic tripeptide pNA plasmin substrate.
Incubations were carried out at 22° C. for 45-60 minutes or until adequate color developed. Color qas quantitated as in the urokinase direct assay above. Parallel incubations were performed with and without plasminogen, and corrected absorbance values were obtained by subtracting values obtained without plasminogen from those obtained with plasminogen, eliminating any contribution of direct cleavage, if any, of plasmin substrate by urokinase.

[3] = target: T3, human plasmin (Homo sapiens, UniProt P00747); experiment: Plasmin Assay; details: for PLM/uPA ratio: ratio with respect to urokinase indirect plasminogen-linked IC50, larger = greater specificity for urokinase
T3 construct: plasmin, the potent general protease produced by cleavage of plasminogen by either urokinase or tPA; purchased American Diagnostica
T3 sequence (P00747 581-810 limits assumed): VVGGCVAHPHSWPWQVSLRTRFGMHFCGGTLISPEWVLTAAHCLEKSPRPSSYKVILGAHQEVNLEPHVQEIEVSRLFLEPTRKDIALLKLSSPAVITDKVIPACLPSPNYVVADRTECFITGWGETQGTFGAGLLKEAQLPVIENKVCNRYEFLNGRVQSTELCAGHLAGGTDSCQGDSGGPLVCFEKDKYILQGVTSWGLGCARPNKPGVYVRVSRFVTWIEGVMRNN
T3 sequence (P00747 97-580 limits assumed): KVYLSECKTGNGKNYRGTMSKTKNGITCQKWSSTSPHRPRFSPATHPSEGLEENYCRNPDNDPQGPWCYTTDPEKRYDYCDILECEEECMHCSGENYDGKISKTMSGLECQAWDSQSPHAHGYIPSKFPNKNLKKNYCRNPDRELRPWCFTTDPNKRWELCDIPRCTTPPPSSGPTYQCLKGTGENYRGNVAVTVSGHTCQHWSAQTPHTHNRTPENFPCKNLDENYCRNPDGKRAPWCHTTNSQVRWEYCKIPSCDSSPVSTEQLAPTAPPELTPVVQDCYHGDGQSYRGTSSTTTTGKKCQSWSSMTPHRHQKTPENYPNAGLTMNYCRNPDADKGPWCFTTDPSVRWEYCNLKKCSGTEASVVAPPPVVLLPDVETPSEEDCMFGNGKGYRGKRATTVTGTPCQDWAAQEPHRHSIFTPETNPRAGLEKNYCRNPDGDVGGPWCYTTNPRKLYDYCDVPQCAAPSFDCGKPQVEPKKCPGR
Method: (v) A chromogenic pNA assay for plasmin, the potent general protease produced by cleavage of plasminogen by either urokinase or tPA. Although urokinase initiates cellular invasiveness by generating plasmin, the additional importance of plasmin in tPA-mediated fibrinolysis dictates that plasmin itself should be free from inhibition by urokinase inhibitors designed as anti-invasiveness agents. […] All other assay conditions, as well as methods of color quantitation, were carried out as described above for the urokinase direct assay.

[4] = target: T4, human high molecular weight urokinase (Homo sapiens, UniProt P00749); experiment: Urokinase Direct Assay; details: read-out: uPA Direct: percentage of residual urokinase activity relative to inhibitor-free controls; heading: uPA Direct: percentage of residual urokinase activity relative to inhibitor-free controls; inhibitor concentration of 1 mM
T4 construct: human high molecular weight urokinase; purchased American Diagnostica, Greenwich, Conn
Method: (i) A direct chromogenic assay in which urokinase cleaves a synthetic tripeptide p-nitroanilide (pNA) urokinase substrate.
Incubations were carried out at 37° C. for approximately 2 hours or until adequate yellow color developed. Color was quantitated by measuring absorbance at 405 nm (A405) using a Titertek Multiskan MCC/340 MK II microtiter plate spectrophotometer.

Row | Compound | residual urokinase activity at 1000 µM [4] [%] | other results
1 | Cl.N=C(N)c1cc2c(/C=C/c3ccco3)cccc2s1 [Compound 67, 4-[E-2-(Furan-2-yl)ethenyl]benzo[b]thiophene-2-carboxamidine hydrochloride] |  | tPA/UPA ratio [1]: 133; IC50 ([1]; tPA Indirect Plasminogen-Linked Assay, in rare cases direct assay result if lower, read-out: tPA IC50): 26 µM; IC50 [2]: 195 nM; PLM/uPA ratio [3]: 1000; IC50 ([3]; read-out: PLASMIN IC50): 195 µM
2 | N=C(N)c1ccc(/C=C/c2cc3ccc4sc(C(=N)N)cc4c3s2)cc1 [Compound 209, 5-[E-2-(4-Carboxamidinophenyl)ethenyl]thieno[4,5-b]benzo[b]thiophene-2-carboxamidine bis-hydrochloride] |  | IC50 [2]: 270 nM
3 | N=C(N)c1cc2cc(-c3cc4ccccc4s3)ccc2s1 [Compound 128, 5-(Benzo[b]thien-2-yl)benzo[b]thiophene-2-carboxamidine hydrochloride] |  | IC50 [2]: 940 nM
4 | CC=Cc1ccc2sc(C(=N)N)cc2c1 [Compound 116, 5-(E/Z-Prop-1-enyl)benzo[b]thiophene-2-carboxamidine hydrochloride] | 1.6 | 
5 | N=C(N)c1cc2cc(CCC3CC3)ccc2s1 [Compound 112, 5-(2-Cyclopropylethyl)benzo[b]thiophene-2-carboxamidine hydrochloride] | 3.3 | 
6 | Cl.N=C(N)c1cc2ccsc2s1 [Compound 321, Thieno[2,3-b]thiophene-2-carboxamidine hydrochloride] | 4.1 | inhibition at 1000 µM ([1]; 1 mM inhibitor, read-out: tPA activity observed relative to inhibitor-free controls): 74%; tPA/UPA ratio [1]: ≥ 500; inhibition at 1000 µM ([3]; 1 mM inhibitor, read-out: PLASMIN activity observed relative to inhibitor-free controls): 88%; PLM/uPA ratio [3]: ≥ 1000
7 | N=C(N)c1cc2cc(CO)ccc2s1 [Compound 131, 5-(Hydroxymethyl)benzo[b]thiophene-2-carboxamidine hydrochloride] | 6.3 | 
8 | COc1c(Br)cc(Br)c2sc(C(=N)N)cc12 [Compound 311, 5,7-Dibromo-4-methoxybenzo[b]thiophene-2-carboxamidine hydrochloride] | 18 | 
9 | N=C(N)c1cc2c(Cl)cccc2s1 [Compound 3, 4-Chlorobenzo[b]thiophene-2-carboxamidine hydrochloride] | 3 | 
10 | N=C(N)c1cc2c(-c3cccc4sc(C(=N)N)cc34)cccc2s1 [Compound 52, Bis-(2-carboxamidinobenzo[b]thien-4-yl) bis-hydrochloride] | 2.7 | 
11 | N=C(N)c1cc2c(C(F)(F)F)cccc2s1 [Compound 54, 4-(Trifluoromethyl)benzo[b]thiophene-2-carboxamidine hydrochloride] | 2.4 | 
12 | CC(C)c1cccc2sc(C(=N)N)cc12 [Compound 8, 4-(1-Methylethyl)benzo[b]thiophene-2-carboxamidine hydrochloride] | 0.9 | 
13 | CCC(C)Cc1cccc2sc(C(=N)N)cc12 (racemic) [Compound 11, 4-([R/S]-2-Methylbutyl)benzo[b]thiophene-2-carboxamidine hydrochloride] | 2.3 | 
14 | CC(C)CCc1ccc2sc(C(=N)N)cc2c1 [Compound 110, 5-(3-Methylbutyl)benzo[b]thiophene-2-carboxamidine hydrochloride] | 4.2 | 
15 | CCC(/C=C/c1cccc2sc(C(=N)N)cc12)CC [Compound 28, 4-(E-3-ethylpent-1-enyl)benzo[b]thiophene-2-carboxamidine hydrochloride] | 0.46 | 
16 | N=C(N)c1cc2cc(C(F)(F)F)ccc2s1 [Compound 129, 5-(Trifluoromethyl)benzo[b]thiophene-2-carboxamidine hydrochloride] | 8.2 | 
17 | CCC(C)=Cc1cccc2sc(C(=N)N)cc12 [Compound 21, 4-(E/Z-2-Methylbut-1-enyl)benzo[b]thiophene-2-carboxamidine hydrochloride] | 1.1 | 

Row | Compound | residual urokinase activity at 1000 µM [4] [%] | other results
18 | CCC(C)=Cc1ccc2sc(C(=N)N)cc2c1 [Compound 118, 5-(E/Z-2-Methylbut-1-enyl)benzo[b]thiophene-2-carboxamidine hydrochloride] | 1.2 | 
19 | COc1ccc(Br)c2sc(C(=N)N)cc12 [Compound 309, 7-Bromo-4-methoxybenzo[b]thiophene-2-carboxamidine hydrochloride] | 18 | 
20 | CC(c1ccccc1)c1cccc2sc(C(=N)N)cc12 (stereo not drawn) [Compound 16, 4-(1-Phenylethyl)benzo[b]thiophene-2-carboxamidine hydrochloride] | 1.4 | 
21 | CCc1ccc2sc(C(=N)N)cc2c1 [Compound 106, 5 -Ethylbenzo[b]thiophene-2-carboxamidine hydrochloride] | 3.6 | 
22 | CCC=Cc1cccc2sc(C(=N)N)cc12 [Compound 20, 4-(E/Z-But-1-enyl)benzo[b]thiophene-2-carboxamidine hydrochloride] | 0.8 | 
23 | COc1cccc2sc(C(=N)N)cc12 [Compound 57, 4-Methoxybenzo[b]thiophene-2-carboxamidine hydrochloride] | 12 | 
24 | N=C(N)c1sc2ccccc2c1N [Compound 306, 3-Aminobenzo[b]thiophene-2-carboxamidine hydrochloride] | 41 | 
25 | CC(C)(O)C#Cc1cccc2sc(C(=N)N)cc12 [Compound 42, 4-(3-Hydroxy-3-methylbut-1-ynyl)benzo[b]thiophene-2-carboxamidine hydrochloride] | 0.6 | 
26 | N=C(N)c1cc2c(CCC3CC3)cccc2s1 [Compound 14, 4-(2-Cyclopropylethyl)benzo[b]thiophene-2-carboxamidine hydrochloride] | 0.54 | 
27 | N=C(N)c1cc2c(N3CCOCC3)cccc2s1 [Compound 62, 4-(1-Morpholino)benzo[b]thiophene-2-carboxamidine hydrochloride] | 3.6 | 
28 | N=C(N)c1cc2cc(C=O)ccc2s1 [Compound 130, 5-Formylbenzo[b]thiophene-2-carboxamidine hydrochloride] | 6.8 | 
29 | N=C(N)c1cc2c(C=C(Br)Br)cccc2s1 [Compound 38, 4-(2,2-Dibromoethenyl)benzo[b]thiophene-2-carboxamidine hydrochloride] | 4.8 | 
30 | N=C(N)c1cc2c(Cl)c(I)ccc2s1 [Compound 203, 4-Chloro-5-iodobenzo[b]thiophene-2-carboxamidine hydrochloride] | 3.5 | 
31 | N=C(N)c1cc2c(CCc3ccccc3)cccc2s1 [Compound 15, 4-(2-Phenylethyl)benzo[b]thiophene-2-carboxamidine hydrochloride] | 0.35 | 
32 | C=C(C)c1cccc2sc(C(=N)N)cc12 [Compound 18, 4-(1-Methylethenyl)benzo[b]thiophene-2-carboxamidine hydrochloride] | 1.3 | 
33 | N=C(N)c1cc2cc(Cl)ccc2s1 [Compound 102, 5-Chlorobenzo[b]thiophene-2-carboxamidine hydrochloride] | 2.9 | 
34 | CCCCCCCC/C=C/c1cccc2sc(C(=N)N)cc12 [Compound 31, 4-(E-Dec-1-enyl)benzo[b]thiophene-2-carboxamidine hydrochloride] | 5.2 | 
